In brackets after ≈: the same amount, converted by molar mass.

This assay has as its system MDR strain of MTB. In words: microbe, parasite or virus in culture. The assay is classed as cell-based. The conditions noted are these: Mycobacterium tuberculosis, 192 h, read-out: Anti-tubercular activity against Mycobacterium tuberculosis, MDR (minimum inhibitory concentration, MIC).
As for `CN1/C(=C\c2ccc(Br)o2)C(=O)N/C1=N\C(=O)Nc1cccc(F)c1` [Compound 4g, 1-{(2E,5Z)-5-[(5-Bromofuran-2-yl)methylidene]-1-methyl-4-oxoimidazolidin-2-ylidene}-3-(3-fluorophenyl)urea], the MIC turned out to be 32 µg/mL (≈ 78.6 µM).

For the molecule `CN1C(=Cc2ccc([N+](=O)[O-])cc2)C(=O)N/C1=N\C(=S)Nc1cccc(Cl)c1` (stereo in doubt) [Compound 4q, 1-(3-Chlorophenyl)-3-[(2E,5Z)-1-methyl-5-(4-nitrobenzylidene)-4-oxoimidazolidin-2-ylidene]thiourea], the MIC was 32 µg/mL (≈ 76.9 µM).

Consider `CN1C(=Cc2ccc(-c3ccccc3[N+](=O)[O-])o2)C(=O)N/C1=N\C(=S)Nc1ccc(F)cc1` (stereo in doubt) [Compound 4v, 1-(4-Fluorophenyl)-3-[(2E,5Z)-1-methyl-5-{[5-(2-nitrophenyl)furan-2-yl]methylidene}-4-oxoimidazolidin-2-ylidene]thiourea], for which the MIC is above 32 µg/mL.

The values are drawn from patent US11981643B1, “Oxoimidazolidine derivatives as anti-tubercular agents” (priority 2023, dated 2024).
